2 compounds from article PMC4076210, “Discovery of Novel AKT Inhibitors with Enhanced Anti-Tumor Effects in Combination with the MEK Inhibitor” (PLoS ONE, 2014) can be followed below.

Where two headings read alike, the source gives them in different places.

What all share (format): biochemical
The target in one test is T1, CaMKIIγ(h) (Homo sapiens, UniProt Q13555).
T1 construct: purchased Millipore KinaseProfiler
The experiment in a line: Kinase panel.

The next test addresses T2, PDGFRα(h) (Homo sapiens, UniProt P16234).
T2 construct: purchased Millipore KinaseProfiler
The experiment in a line: Kinase panel.

The next test addresses T3, MuSK(h) (Homo sapiens, UniProt O15146).
T3 construct: purchased Millipore KinaseProfiler
T3 sequence (O15146 24-869): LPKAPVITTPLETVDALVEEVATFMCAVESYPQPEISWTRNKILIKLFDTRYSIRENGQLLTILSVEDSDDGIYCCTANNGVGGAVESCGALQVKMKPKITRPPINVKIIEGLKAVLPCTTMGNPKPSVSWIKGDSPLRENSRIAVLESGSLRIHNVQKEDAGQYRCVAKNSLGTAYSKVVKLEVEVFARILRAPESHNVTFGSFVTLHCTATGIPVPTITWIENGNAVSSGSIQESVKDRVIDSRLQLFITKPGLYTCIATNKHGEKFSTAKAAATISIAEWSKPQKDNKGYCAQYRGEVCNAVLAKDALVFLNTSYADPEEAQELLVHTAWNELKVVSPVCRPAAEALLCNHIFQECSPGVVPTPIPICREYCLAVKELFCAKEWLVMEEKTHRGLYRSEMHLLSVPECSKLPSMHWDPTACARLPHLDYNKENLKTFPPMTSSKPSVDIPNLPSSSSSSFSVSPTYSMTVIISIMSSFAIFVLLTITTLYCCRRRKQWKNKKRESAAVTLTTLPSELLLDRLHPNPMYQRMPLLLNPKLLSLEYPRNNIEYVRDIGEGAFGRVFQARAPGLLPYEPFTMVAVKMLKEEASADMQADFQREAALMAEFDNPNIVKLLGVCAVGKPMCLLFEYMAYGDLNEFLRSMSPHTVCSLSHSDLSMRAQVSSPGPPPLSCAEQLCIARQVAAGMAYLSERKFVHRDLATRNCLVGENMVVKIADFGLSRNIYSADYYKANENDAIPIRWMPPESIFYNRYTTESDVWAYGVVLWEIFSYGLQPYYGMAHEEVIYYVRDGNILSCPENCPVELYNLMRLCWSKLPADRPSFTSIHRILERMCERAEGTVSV
Nature of the test: Kinase panel.

The next test concerns the target T4, SRPK1(h) (Homo sapiens, UniProt Q96SB4).
T4 construct: purchased Millipore KinaseProfiler
The experiment in a line: Kinase panel.

A further test addresses T5, Lyn(h) (Homo sapiens, UniProt P07948).
T5 construct: purchased Millipore KinaseProfiler
Nature of the test: Kinase panel.

In another test the target is T6, Aurora-A(h) (Homo sapiens, UniProt O14965).
T6 construct: purchased Millipore KinaseProfiler
T6 sequence (O14965 1-403): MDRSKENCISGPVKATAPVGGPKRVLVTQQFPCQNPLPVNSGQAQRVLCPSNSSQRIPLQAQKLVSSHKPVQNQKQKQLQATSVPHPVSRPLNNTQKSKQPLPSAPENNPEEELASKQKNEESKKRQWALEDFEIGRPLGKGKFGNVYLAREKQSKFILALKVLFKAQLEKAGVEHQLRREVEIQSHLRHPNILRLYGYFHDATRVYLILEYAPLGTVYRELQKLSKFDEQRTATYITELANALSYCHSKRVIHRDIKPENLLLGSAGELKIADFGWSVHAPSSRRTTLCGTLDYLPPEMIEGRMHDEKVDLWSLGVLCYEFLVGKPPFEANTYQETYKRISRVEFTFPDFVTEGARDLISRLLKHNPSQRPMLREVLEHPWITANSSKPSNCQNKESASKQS
The experiment in a line: Kinase panel.

The target in another test is T7, EphA1(h) (Homo sapiens, UniProt P21709).
T7 construct: purchased Millipore KinaseProfiler
T7 sequence (P21709 26-976): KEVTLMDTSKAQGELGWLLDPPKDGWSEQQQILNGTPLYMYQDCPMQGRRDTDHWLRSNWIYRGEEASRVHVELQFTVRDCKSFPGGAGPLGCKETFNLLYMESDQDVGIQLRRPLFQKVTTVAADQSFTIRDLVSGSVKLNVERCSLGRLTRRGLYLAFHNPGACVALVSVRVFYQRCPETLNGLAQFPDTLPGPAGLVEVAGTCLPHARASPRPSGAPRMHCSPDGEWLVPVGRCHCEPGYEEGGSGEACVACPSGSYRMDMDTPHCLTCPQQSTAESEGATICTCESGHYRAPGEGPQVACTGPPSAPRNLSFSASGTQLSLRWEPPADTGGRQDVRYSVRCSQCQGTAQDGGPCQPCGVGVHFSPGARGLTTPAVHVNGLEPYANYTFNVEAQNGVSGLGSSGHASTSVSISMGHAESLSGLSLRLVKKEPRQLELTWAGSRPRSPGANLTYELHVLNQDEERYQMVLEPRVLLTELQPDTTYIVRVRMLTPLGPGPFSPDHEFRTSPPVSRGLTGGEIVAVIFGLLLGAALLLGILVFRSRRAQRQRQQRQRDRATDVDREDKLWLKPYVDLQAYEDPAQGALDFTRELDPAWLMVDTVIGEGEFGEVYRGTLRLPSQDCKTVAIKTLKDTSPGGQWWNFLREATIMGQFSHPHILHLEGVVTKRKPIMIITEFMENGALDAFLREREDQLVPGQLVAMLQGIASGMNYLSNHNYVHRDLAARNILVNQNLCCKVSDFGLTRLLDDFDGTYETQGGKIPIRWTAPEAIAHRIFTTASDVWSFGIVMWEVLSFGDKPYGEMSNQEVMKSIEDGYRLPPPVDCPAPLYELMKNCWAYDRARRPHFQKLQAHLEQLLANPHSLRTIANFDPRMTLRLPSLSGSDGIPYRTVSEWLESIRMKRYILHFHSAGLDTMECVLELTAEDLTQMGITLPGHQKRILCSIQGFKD
Nature of the test: Kinase panel.

The next test addresses PKCε (Homo sapiens, UniProt Q02156). The experiment in a line: Kinase IC50 assay.
The next test concerns the target T8, cSRC(h) (Homo sapiens, UniProt P12931).
T8 construct: purchased Millipore KinaseProfiler
Nature of the test: Kinase panel.

T2 sequence (P16234 24-1089): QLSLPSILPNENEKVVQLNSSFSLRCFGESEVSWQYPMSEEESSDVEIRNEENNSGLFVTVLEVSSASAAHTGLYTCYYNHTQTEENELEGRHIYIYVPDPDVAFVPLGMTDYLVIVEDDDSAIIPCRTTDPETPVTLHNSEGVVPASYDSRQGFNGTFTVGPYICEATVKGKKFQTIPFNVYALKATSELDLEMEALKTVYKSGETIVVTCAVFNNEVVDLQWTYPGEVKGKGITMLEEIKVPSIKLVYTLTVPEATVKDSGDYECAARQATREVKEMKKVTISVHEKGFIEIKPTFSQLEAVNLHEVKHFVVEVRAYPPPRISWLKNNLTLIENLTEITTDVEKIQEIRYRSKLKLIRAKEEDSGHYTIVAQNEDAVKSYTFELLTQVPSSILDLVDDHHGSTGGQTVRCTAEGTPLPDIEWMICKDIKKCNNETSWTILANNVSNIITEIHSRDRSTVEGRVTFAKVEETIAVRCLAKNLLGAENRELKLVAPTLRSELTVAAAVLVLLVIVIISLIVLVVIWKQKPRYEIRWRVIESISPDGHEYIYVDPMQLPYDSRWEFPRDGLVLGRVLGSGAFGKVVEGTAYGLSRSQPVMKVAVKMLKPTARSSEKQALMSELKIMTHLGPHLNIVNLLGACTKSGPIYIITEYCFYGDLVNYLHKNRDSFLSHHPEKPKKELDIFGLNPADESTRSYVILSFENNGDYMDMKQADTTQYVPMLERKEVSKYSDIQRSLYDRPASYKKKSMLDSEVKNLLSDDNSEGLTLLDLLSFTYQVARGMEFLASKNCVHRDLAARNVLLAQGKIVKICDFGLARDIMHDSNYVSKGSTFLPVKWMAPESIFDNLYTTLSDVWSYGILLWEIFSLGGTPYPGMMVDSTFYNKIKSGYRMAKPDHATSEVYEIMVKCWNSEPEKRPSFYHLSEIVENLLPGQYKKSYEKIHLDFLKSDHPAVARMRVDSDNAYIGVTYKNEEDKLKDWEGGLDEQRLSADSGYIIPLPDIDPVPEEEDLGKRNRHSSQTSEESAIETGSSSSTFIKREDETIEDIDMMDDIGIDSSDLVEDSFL
T8 sequence (P12931 whole entry): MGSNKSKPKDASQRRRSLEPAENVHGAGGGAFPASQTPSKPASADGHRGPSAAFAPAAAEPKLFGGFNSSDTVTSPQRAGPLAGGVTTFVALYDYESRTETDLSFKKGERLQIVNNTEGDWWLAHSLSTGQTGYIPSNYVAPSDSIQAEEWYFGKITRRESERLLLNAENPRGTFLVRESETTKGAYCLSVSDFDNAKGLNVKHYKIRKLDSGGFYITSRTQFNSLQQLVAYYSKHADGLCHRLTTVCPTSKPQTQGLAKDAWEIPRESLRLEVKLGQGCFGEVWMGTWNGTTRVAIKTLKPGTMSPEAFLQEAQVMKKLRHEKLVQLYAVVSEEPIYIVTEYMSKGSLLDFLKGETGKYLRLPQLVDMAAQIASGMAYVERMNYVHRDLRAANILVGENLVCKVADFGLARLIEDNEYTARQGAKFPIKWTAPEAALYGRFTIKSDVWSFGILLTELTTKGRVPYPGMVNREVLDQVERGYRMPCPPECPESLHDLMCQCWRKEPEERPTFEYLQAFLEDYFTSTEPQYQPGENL
T1 sequence (Q13555 whole entry): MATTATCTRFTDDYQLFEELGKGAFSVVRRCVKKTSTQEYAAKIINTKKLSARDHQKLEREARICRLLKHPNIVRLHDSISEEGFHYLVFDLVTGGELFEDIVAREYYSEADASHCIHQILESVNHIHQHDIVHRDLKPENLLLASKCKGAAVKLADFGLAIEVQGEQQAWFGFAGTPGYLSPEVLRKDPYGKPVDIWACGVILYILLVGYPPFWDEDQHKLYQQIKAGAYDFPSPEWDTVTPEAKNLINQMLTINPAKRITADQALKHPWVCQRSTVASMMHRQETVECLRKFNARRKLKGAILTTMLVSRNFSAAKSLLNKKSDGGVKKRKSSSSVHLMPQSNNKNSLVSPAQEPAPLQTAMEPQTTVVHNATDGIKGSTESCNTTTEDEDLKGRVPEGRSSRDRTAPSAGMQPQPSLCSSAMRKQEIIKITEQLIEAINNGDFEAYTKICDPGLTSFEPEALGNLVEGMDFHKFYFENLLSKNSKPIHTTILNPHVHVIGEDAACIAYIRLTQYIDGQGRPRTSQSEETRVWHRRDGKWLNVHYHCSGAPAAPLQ
T4 sequence (Q96SB4 whole entry): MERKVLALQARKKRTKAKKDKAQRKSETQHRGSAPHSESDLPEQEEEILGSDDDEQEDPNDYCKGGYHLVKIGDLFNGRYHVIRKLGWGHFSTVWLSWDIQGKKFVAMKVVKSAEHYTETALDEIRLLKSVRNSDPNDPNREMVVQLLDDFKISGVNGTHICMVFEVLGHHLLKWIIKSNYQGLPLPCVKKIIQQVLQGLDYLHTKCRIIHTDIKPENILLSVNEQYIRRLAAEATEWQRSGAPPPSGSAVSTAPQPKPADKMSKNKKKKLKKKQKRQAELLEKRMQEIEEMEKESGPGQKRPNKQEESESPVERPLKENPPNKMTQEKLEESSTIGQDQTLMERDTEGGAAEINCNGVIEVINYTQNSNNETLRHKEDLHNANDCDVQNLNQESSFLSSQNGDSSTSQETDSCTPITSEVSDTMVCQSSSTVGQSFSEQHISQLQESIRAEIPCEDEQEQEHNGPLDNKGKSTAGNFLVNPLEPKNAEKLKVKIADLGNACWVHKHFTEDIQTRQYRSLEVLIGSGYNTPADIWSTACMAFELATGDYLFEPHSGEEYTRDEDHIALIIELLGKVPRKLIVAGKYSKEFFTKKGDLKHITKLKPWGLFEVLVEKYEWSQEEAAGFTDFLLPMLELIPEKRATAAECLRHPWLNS
T5 sequence (P07948 whole entry): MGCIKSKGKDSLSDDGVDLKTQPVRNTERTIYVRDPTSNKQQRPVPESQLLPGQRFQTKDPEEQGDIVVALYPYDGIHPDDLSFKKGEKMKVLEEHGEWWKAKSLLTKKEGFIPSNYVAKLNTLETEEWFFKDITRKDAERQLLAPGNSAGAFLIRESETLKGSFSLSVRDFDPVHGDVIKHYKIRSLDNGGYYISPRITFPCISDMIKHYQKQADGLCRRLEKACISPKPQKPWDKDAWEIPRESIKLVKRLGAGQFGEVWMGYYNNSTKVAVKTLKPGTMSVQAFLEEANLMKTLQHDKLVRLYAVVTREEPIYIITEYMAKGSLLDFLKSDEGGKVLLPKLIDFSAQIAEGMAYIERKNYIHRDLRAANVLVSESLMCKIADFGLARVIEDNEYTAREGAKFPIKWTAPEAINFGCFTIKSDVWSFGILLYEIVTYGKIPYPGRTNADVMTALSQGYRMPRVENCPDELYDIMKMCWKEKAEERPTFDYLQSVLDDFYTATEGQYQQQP
Sequence of PKCε (Q02156 whole entry): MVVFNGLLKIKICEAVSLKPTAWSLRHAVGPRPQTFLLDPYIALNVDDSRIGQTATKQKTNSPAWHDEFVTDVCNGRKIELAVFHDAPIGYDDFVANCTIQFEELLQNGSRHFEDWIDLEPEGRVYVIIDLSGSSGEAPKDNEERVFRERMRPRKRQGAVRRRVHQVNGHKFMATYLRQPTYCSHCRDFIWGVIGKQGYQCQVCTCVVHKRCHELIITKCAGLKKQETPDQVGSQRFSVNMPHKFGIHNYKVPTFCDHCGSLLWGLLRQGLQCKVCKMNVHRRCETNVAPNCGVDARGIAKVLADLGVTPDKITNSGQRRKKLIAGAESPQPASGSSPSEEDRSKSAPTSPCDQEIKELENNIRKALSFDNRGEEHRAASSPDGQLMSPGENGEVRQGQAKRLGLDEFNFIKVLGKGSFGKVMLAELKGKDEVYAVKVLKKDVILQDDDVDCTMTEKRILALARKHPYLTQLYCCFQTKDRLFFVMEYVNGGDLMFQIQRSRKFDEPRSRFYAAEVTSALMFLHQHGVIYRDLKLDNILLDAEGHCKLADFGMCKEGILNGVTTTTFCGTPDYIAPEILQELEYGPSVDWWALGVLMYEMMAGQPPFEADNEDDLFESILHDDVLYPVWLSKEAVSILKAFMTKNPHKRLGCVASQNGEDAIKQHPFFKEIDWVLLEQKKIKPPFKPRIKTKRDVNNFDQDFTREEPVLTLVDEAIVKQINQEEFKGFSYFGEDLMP

In the case of `Cn1ncc(Cl)c1-c1cc(C(=O)N[C@H](CN)Cc2cccc(F)c2)sc1Cl` [GSK2110183], the inhibition (in general, the drop in the measured response relative to a control, in per cent) at 0.5 µM on CaMKIIγ(h) is 39%; against PDGFRα(h), -2%; on MuSK(h), -25%; against SRPK1(h), -1%; on Lyn(h), -12%; against Aurora-A(h) it was 0%. For the same compound, the inhibition at 0.5 µM against EphA1(h) is -14%; on cSRC(h), -1%. Besides, the inhibition at 10 µM is 89% against CaMKIIγ(h); -2% against PDGFRα(h); -20% on MuSK(h); 18% at SRPK1(h); 7% on Lyn(h); 23% against Aurora-A(h). For the same compound, the inhibition at 10 µM on EphA1(h) is -5%; on cSRC(h), 22%. Further, the 50% inhibitory concentration (IC50) (in general, the concentration at which inhibition is half-maximal) on PKCε was greater than 1000 nM.

For `Cn1ncc(Cl)c1-c1cc(C(=O)N[C@H](CN)Cc2ccc(F)c(F)c2)oc1Cl` [GSK2141795], the inhibition at 0.5 µM was 48% on CaMKIIγ(h) (0.5 µM, read-out: % Inhibition); -4% on PDGFRα(h) (0.5 µM, read-out: % Inhibition); -11% at MuSK(h) (0.5 µM, read-out: % Inhibition); 5% on SRPK1(h) (0.5 µM, read-out: % Inhibition); -10% on Lyn(h) (0.5 µM, read-out: % Inhibition); -10% on Aurora-A(h) (0.5 µM, read-out: % Inhibition). Moreover, the inhibition at 0.5 µM on EphA1(h) (0.5 µM, read-out: % Inhibition) is 4%; on cSRC(h) (0.5 µM, read-out: % Inhibition) it was -6%. In addition, the inhibition at 10 µM is 92% on CaMKIIγ(h) (10 µM, read-out: % Inhibition); -4% at PDGFRα(h) (10 µM, read-out: % Inhibition); -2% on MuSK(h) (10 µM, read-out: % Inhibition); 17% on SRPK1(h) (10 µM, read-out: % Inhibition); 41% on Lyn(h) (10 µM, read-out: % Inhibition); 31% on Aurora-A(h) (10 µM, read-out: % Inhibition). Besides, the inhibition at 10 µM at EphA1(h) (10 µM, read-out: % Inhibition) stood at 53%; at cSRC(h) (10 µM, read-out: % Inhibition), 49%. Besides, on PKCε, the IC50 was greater than 1000 nM.
